The source of these data is BindingDB's records for doi:10.1016/0006-2952(81)90220-3 (Royal Postgraduate Medical School, 1981).

Several values for one entry are separate records, joined by “and”; a condition that tells them apart may be missing. Equal entries are not always repeated.

Prostacyclin receptor, sequence (P43252 whole entry): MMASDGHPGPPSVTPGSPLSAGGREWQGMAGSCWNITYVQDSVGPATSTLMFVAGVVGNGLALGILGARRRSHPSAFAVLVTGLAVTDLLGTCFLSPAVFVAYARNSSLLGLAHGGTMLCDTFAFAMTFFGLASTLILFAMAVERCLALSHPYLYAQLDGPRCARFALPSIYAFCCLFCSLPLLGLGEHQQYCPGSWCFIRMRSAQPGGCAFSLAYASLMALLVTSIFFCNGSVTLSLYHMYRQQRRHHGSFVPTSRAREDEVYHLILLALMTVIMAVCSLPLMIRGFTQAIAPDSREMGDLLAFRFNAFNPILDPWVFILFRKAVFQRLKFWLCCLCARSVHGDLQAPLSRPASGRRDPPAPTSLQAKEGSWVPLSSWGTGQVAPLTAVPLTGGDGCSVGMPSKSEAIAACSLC

The assay addresses Prostacyclin receptor (Mus musculus, UniProt P43252).
The compound `CCCCCC(O)C=CC1C(O)CC(O)C1CCCCCCC(=O)O` (stereo not drawn) [NSC_5280939] registered a Ki greater than 10 µM.

Compound `CCCCC[C@H](O)/C=C/C1[C@H](O)C[C@H](O)[C@@H]1C/C=C\CCCC(=O)O` (stereo partly drawn) [(Z)-7-[(1R,3R,5S)-3,5-Dihydroxy-2-((E)-(S)-3-hydroxy-oct-1-enyl)-cyclopentyl]-hept-5-enoic acid] showed a Ki greater than 10 µM.

For `CCCCC[C@H](O)/C=C/C1[C@H](O)CC(=O)[C@H]1CCCCCCC(=O)O` (stereo partly drawn) [8-ISO PROSTAGLANDIN E1], the inhibition constant Ki was found to be 0.735 µM.

In turn, `CCCCC[C@H](O)/C=C/[C@@H]1[C@H]2C/C(=C\CCCC(=O)O)C[C@H]2C[C@H]1O` returned a Ki of 0.0166 µM. This Ki is about 44-fold lower than that of the compound before.

`O=C(O)CCC/C=C\C[C@H]1C(=O)C[C@@H](O)[C@@H]1/C=C/[C@@H](O)CCc1ccccc1` [17-PHENYL TRINOR PROSTAGLANDIN E2]: the Ki is 4.37 µM.

Turning to `CCCCC[C@@H](O)/C=C/[C@H]1[C@H](O)CC(=O)[C@@H]1CCCCCCC(=O)O`, the Ki is 0.137 µM.

`CCCCCC(=O)CC[C@H]1[C@H](O)CC(=O)[C@@H]1C/C=C\CCCC(=O)O` [13,14-DIHYDRO-15-KETO PROSTAGLANDIN E2]: the Ki is 8.41 µM and > 10 µM.

Compound `CCCCC[C@H](O)/C=C/[C@H]1[C@H](O)CC(=O)[C@@H]1C/C=C/CCCC(=O)O` [(E)-7-((1R,2R,3R)-3-hydroxy-2-((S,E)-3-hydroxyoct-1-enyl)-5-oxocyclopentyl)hept-5-enoic acid] yielded an inhibition constant (Ki) of 0.735 µM.

In the case of `CCCCC[C@H](O)/C=C/[C@H]1[C@H](O)CC(=O)[C@@H]1C/C=C\CCCC(=O)O` [DINOPROSTONE], the Ki was greater than 10 µM.

Regarding `CCCCC[C@H](O)/C=C/[C@@H]1[C@@H](CC(=O)CCC(=O)O)[C@@H](O)C[C@H]1O` [2,3-dinor-6-ketoprostaglandin F1alpha], the Ki was greater than 10 µM.

With `CCCCC[C@@H](O)/C=C/[C@H]1[C@H](O)CC(=O)[C@@H]1C/C=C\CCCC(=O)O`, the Ki is greater than 10 µM.

`CCCCC[C@H](O)CC[C@H]1[C@H](O)CC(=O)[C@@H]1CCCCCCC(=O)O` [CAS_19313-28-1]: affinity was put at a Ki of 0.315 µM.

On to `CCCCCC(O)C=CC1C(O)CC2OC(CCCCC(=O)O)CC21` (stereo not drawn) [CAS_162981], for which the Ki was 7.35 µM. Against the preceding compound, the Ki is about 23-fold higher.
